The source of these data is patent US20220356232A1, “A COMBINATION OF PLASMA IMMUNOGLOBULIN AND ANTIGEN-SPECIFIC IMMUNOGLOBULIN FOR THE MODIFICATION OF THE IMMUNE SYSTEM AND THE TREATMENT OR PREVENTION OF AUTOIMMUNE DISEASES” (Network Immunology Inc., priority 2019, published 2022).

Holding throughout (format): in vivo, C57BL/6 mice
Experiment [1] deals with DSS-induced chronic colitis. The experiment is described as follows: DSS-induced chronic colitis: body weight and colon length (Example 6).
For experiment [2], the system named is DSS-induced acute colitis. The experiment is described as follows: DSS-induced acute colitis (Example 6). The note with it: 3% DSS 7 days; treatment from time of DSS exposure; FIGS. 12A-12C. An excerpt:
Wild-type (WT) C57BL/6 female mice, with high susceptibility to DSS-induced colitis, were used throughout and purchased from the Jackson laboratories (Bar Harbor, Me.). All mice were housed five per cage under specific pathogen-free conditions, allowed standard diet and water ad libitum, and used at 6-8 wk of age. Acute DSS colitis was induced by giving mice distilled drinking water containing 3% (wt./vol) DSS (Mol.Wt.=40 kDa; ICN Biochemicals, Aurora, Ohio) for 7 days. For induction of chronic colitis, mice were treated with 5 days of 2.5% DSS followed by 7 days of normal drinking water for a total of 3 cycles. Body weight was measured three times/week throughout the experiment. The maximum mortality observed following induction of acute colitis was 15% averaged over all studies, while no significant mortality was seen any groups in the chronic colitis model. Maximum weight loss in either model was ˜25%. […] In FIG. 12A, changes in body weight are expressed as a percent weight loss from baseline and plotted versus time post initiation of DSS treatment (x-axis). […] In FIGS. 12B and 12C, changes in colon length and 24 hr cytokine production from colon explant cultures respectively were assessed on day 9 following initiation of DSS treatment for mice shown in FIG. 12A and are expressed as mean±SD.

In experiment [3] the test system is DSS-induced chronic colitis. The experiment is described as follows: Effect of T depletion (anti-CD4 mAb) on protection from DSS-induced chronic colitis. The note with it: no anti-CD4 mAb.
In experiment [4] the test system is colonic explants from mice with chronic colitis. Kind of experiment: Cytokine release from 24 hr colonic explant cultures, chronic colitis (Example 6). To be noted: 24 hr colonic explant cultures harvested at 38 d; FIG. 8.
Experiment [5] has as its system PP cells isolated from colonic tissue. Kind of experiment: FACS staining of CD3+ and Foxp3+ cells in PP cells isolated from colonic tissue, chronic colitis. The note with it: DSS chronic colitis, treatment as per FIG. 7A.

`C[C@]12CCC(=O)C=C1CC[C@@H]1[C@@H]2[C@@H](O)C[C@@]2(C)[C@H]1CC[C@]2(O)C(=O)COC(=O)CCC(=O)O` [Solu-Cortef]: the “weight loss in second and third cycle of DSS treatment” value in experiment [1] (Ig weekly ×5 im from start of first DSS cycle, Solu-Cortef 6 μg/mouse alternate days, FIG. 7A) was “attenuation of weight loss”. Besides, the “suppression of disease in chronic colitis” value in experiment [1] (all DSS cycles, 6 μg/mouse on alternate days) is recorded as “active in suppressing disease at all times”. In addition, in experiment [2], the “protection from pathology of acute colitis (weight loss, colon length, production of inflammatory cytokines)” value is “protected”. The “weight loss after induction of chronic colitis” value in experiment [3] (5 mice/group, FIG. 9A) is given as “protected”. Also, the “release of inflammatory cytokines from colon explant cultures” value in experiment [3] (FIG. 10) is on record as “attenuation of release”. Further, in experiment [4], the “release of inflammatory cytokines IFNγ, TNFα, IL-1β, IL-17 and IL-6” value is given as “No such increased inflammatory cytokine release”. Further, in experiment [5] (PP cells from 2-3 mice/group), the “% Ant-CD3” value is recorded as 4.4 ± 2.2% and the “% Anti-Foxp3” value is 0.2 ± 0.2%. Moreover, the “Foxp3:CD3” value in experiment [5] (ratio, PP cells) came out at 0.04.
